Results on 40 compounds are retold here after patent US20260200920A1, “SUBSTITUTED AMINOPYRIDINE COMPOUNDS FOR USE AS AKT1 INHIBITORS” (Atavistik Bio, Inc., priority 2023, published 2026).

Assay [1] concerns the target T1, human recombinant kinase full-length AKT1 E17K (Homo sapiens, UniProt P31749, E17K).
T1 construct: Purified human recombinant kinase full-length AKT1 E17K was expressed in insect cells; made in house; host or cells: insect cells
As to the kind of experiment: AKT1 E17K kinase assay (TR-FRET, Lance). The format is biochemical. Conditions: 0.6 nM AKT1 E17K, 50 nM Ulight-CREBtide, either 50 μM ATP or 2 mM ATP, 60 min at RT. A digest of the protocol: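 Full-length AKT1 E17K from insect cells, PDPK1-activated, at 0.6 nM with 50 nM Ulight-CREBtide and 50 μM or 2 mM ATP, pH 7.5, 1% DMSO. Enzyme and compound preincubated 15 min, reaction run 60 min at RT; Eu-anti-phospho-CREB (Ser133) TR-FRET 665/620 ratio, 10-point curve, IC50 by 4-parameter fit.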

Assay [2] deals with T2, human recombinant kinase full-length wildtype AKT1 (Homo sapiens, UniProt P31749).
T2 construct: Purified human recombinant kinase full-length wildtype AKT1 was expressed in insect cells; made in house; host or cells: insect cells
T2 sequence (P31749 whole entry): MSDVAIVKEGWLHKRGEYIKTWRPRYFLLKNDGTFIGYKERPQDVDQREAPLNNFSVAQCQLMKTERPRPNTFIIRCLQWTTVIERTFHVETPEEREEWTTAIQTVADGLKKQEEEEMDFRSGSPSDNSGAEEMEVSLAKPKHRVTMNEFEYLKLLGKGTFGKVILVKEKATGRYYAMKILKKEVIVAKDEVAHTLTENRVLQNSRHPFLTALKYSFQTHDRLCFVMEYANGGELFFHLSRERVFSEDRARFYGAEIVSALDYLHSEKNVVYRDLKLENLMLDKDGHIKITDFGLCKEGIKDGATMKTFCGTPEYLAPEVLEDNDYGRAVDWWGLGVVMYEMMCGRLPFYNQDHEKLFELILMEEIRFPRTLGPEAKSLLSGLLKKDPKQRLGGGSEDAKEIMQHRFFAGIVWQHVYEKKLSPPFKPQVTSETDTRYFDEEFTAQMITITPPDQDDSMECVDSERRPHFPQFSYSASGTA
As to the kind of experiment: AKT1 kinase assay (wildtype, TR-FRET, Lance). The following applies: 0.6 nM wildtype AKT1, 50 nM Ulight-CREBtide, either 50 μM ATP or 2 mM ATP, 60 min at RT. The assay is classed as biochemical. The method in brief:
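Insect-cell-expressed full-length human AKT1, PDPK1-activated (0.6 nM), preincubated with compound 15 min at RT, then reacted 60 min at RT with 50 nM ULight-CREBtide and 50 μM or 2 mM ATP (pH 7.5, 1% DMSO). Phospho-CREBtide read by Eu-anti-phospho-Ser133 TR-FRET (665/620 ratio); IC50 from 10-point 4-parameter fit.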

Structures are written as SMILES. pIC50: −log10 of the molar value.

T1 sequence (P31749 whole entry E17K): as the sequence (P31749 whole entry) above, with E17K counted along it

On to `Cc1cc(C2(C)CN(C[C@H]3CC[C@H](C(=O)O)CC3)C2)ccc1-n1c(-c2cccnc2N)nc2ccc(-c3ccccc3)nc21` [Compound I-156], for which the pIC50 in assay [1] was 5.70 to 6.30; in assay [2], over 4.70.

As for `Cc1cc(C2(C)CN(CC3CC4(C3)CC(C(=O)O)C4)C2)ccc1-n1c(-c2cccnc2N)nc2ccc(-c3ccccc3)nc21` (centres unmarked) [Compound I-157], the negative logarithm of the IC50 (pIC50) in assay [1] was 5.70 to 6.30; in assay [2] it was over 4.70.

For the compound `CN(CCc1ccc(-n2c(-c3cccnc3N)nc3ccc(-c4ccccc4)nc32)cc1)[C@H]1CC[C@H](C(=O)O)CC1` [Compound I-158], the pIC50 in assay [1] was 5.70 to 6.30; in assay [2] it was over 4.70.

Consider `Nc1ncccc1-c1nc2ccc(-c3ccccc3)nc2n1-c1ccc(CCN2CCC(C(=O)O)C2)cc1` (centres unmarked) [Compound I-159], for which the pIC50 was over 6.30 in assay [1] and over 4.70 in assay [2].

`C[C@@H]1C[C@H](N(C)Cc2ccc(-n3c(-c4cccnc4N)nc4ccc(-c5ccccc5)nc43)c(F)c2)C[C@H](C)[C@H]1C(=O)O` [Compound I-160]: the pIC50 in assay [1] is 5.70 to 6.30; in assay [2] it was over 4.70.

For the compound `CN(Cc1ccc(-n2c(-c3cccnc3N)nc3ccc(-c4ccccc4)nc32)c(F)c1)C12CCC(C(=O)O)(CC1)CC2` [Compound I-161], the figures for the negative-log IC50 (pIC50) in assay [1] and in assay [2] were over 6.30 and over 4.70, respectively.

Turning to `CCN(Cc1ccc(-n2c(-c3cccnc3N)nc3ccc(-c4ccccc4)nc32)c(F)c1)[C@H]1CC[C@@H](C(=O)O)CC1` [Compound I-162], the pIC50 in assay [1] was at most 5.70; in assay [2], over 4.70.

`CCN(Cc1ccc(-n2c(-c3cccnc3N)nc3ccc(-c4ccccc4)nc32)c(F)c1)[C@H]1CC[C@H](C(=O)O)CC1` [Compound I-163]: the pIC50 in assay [1] is at most 5.70; in assay [2], over 4.70.

Regarding `CN(Cc1ccc(-n2c(-c3cccnc3N)nc3ccc(-c4ccccc4)nc32)c(F)c1)[C@H]1CC[C@H](C(=O)O)CC1` [Compound I-164], the figures for the negative logarithm of the IC50 (pIC50) in assay [1] and in assay [2] were 5.70 to 6.30 and over 4.70, respectively.

`CN(Cc1ccc(-n2c(-c3cccnc3N)nc3ccc(-c4ccccc4)nc32)c(F)c1)[C@H]1CC[C@@H](C(=O)O)CC1` [Compound I-165]: the pIC50 in assay [1] was over 6.30; in assay [2], over 4.70.

For the compound `CC(C)CN(Cc1ccc(-n2c(-c3cccnc3N)nc3ccc(-c4ccccc4)nc32)cc1)[C@H]1CC[C@H](C(=O)O)CC1` [Compound I-166], the pIC50 was at most 5.70 in assay [1] and over 4.70 in assay [2].

Turning to `CCN(Cc1ccc(-n2c(-c3cccnc3N)nc3ccc(-c4ccccc4)nc32)cc1)[C@H]1CC[C@H](C(=O)O)CC1` [Compound I-167], the figures for the negative logarithm of the IC50 (pIC50) in assay [1] and in assay [2] were 5.70 to 6.30 and over 4.70, respectively.

As to `CC(C)N(Cc1ccc(-n2c(-c3cccnc3N)nc3ccc(-c4ccccc4)nc32)cc1)[C@H]1CC[C@H](C(=O)O)CC1` [Compound I-168], the pIC50 was at most 5.70 in assay [1] and over 4.70 in assay [2].

In the case of `CN(Cc1ccc(-n2c(-c3cccnc3N)nc3ccc(-c4ccccc4)nc32)cc1)[C@H]1CC[C@H](CC(=O)O)CC1` [Compound I-169], the pIC50 is over 6.30 in assay [1] and over 4.70 in assay [2].

Turning to `CN(Cc1ccc(-n2c(-c3cccnc3N)nc3ccc(-c4ccccc4)nc32)cc1)[C@@H]1CC[C@@H](C(=O)O)C1` [Compound I-170], the pIC50 in assay [1] is over 6.30; in assay [2], over 4.70.

For `CN(Cc1ccc(-n2c(-c3cccnc3N)nc3ccc(-c4ccccc4)nc32)cc1)C1CC[C@H](C(=O)O)C1` (some centres unmarked) [Compound I-172], the pIC50 in assay [1] was over 6.30; in assay [2], over 4.70.

With `CN(Cc1ccc(-n2c(-c3cccnc3N)nc3ccc(-c4ccccc4)nc32)cc1)C1CC[C@@H](C(=O)O)C1` (some centres unmarked) [Compound I-173], the results for the pIC50 in assay [1] and in assay [2] were 5.70 to 6.30 and over 4.70, respectively.

Consider `CC(c1ccc(-n2c(-c3cccnc3N)nc3ccc(-c4ccccc4)nc32)cc1)N(C)[C@H]1CC[C@H](C(=O)O)CC1` (some centres unmarked) [Compound I-176], for which the pIC50 in assay [1] is 5.70 to 6.30; in assay [2], over 4.70.

For the compound `CC(c1ccc(-n2c(-c3cccnc3N)nc3ccc(-c4ccccc4)nc32)cc1)N(C)[C@H]1CC[C@@H](C(=O)O)CC1` (some centres unmarked) [Compound I-177], the figures for the pIC50 in assay [1] and in assay [2] were 5.70 to 6.30 and over 4.70, respectively.

Turning to `Cc1cc(CN(C)[C@H]2CC[C@H](C(=O)O)CC2)ccc1-n1c(-c2cccnc2N)nc2ccc(-c3ccccc3)nc21` [Compound I-178], the results for the pIC50 in assay [1] and in assay [2] were at most 5.70 and over 4.70, respectively.

In the case of `Cc1cc(CN(C)[C@H]2CC[C@@H](C(=O)O)CC2)ccc1-n1c(-c2cccnc2N)nc2ccc(-c3ccccc3)nc21` [Compound I-179], the figures for the pIC50 in assay [1] and in assay [2] were 5.70 to 6.30 and over 4.70, respectively.

Consider `Cc1cc(CN2CCC(C(C)(C)C(=O)O)C2)ccc1-n1c(-c2cccnc2N)nc2ccc(-c3ccccc3)nc21` (centres unmarked) [Compound I-180], for which the negative logarithm of the IC50 (pIC50) in assay [1] is at most 5.70; in assay [2], over 4.70.

On to `NC(=O)N1CCC(CCc2ccc(-n3c(-c4cccnc4N)nc4ccc(-c5ccccc5)nc43)cc2F)CC1` [Compound I-181], for which the negative-log IC50 (pIC50) in assay [1] was 5.70 to 6.30; in assay [2], over 4.70.

For the compound `Cc1nc(NC(=O)N2CCC(C(=O)O)CC2)ccc1-n1c(-c2cccnc2N)nc2ccc(-c3ccccc3)nc21` [Compound I-182], the pIC50 in assay [1] is over 6.30; in assay [2] it was over 4.70.

For the compound `Cc1nc(CN(C)[C@H]2CC[C@H](C(=O)O)CC2)ccc1-n1c(-c2cccnc2N)nc2ccc(-c3ccccc3)nc21` [Compound I-183], the pIC50 in assay [1] is at most 5.70; in assay [2], over 4.70.

As to `Cc1nc(CN(C)[C@H]2CC[C@@H](C(=O)O)CC2)ccc1-n1c(-c2cccnc2N)nc2ccc(-c3ccccc3)nc21` [Compound I-184], the pIC50 is 5.70 to 6.30 in assay [1] and over 4.70 in assay [2].

Turning to `CC(C)(C(=O)O)C1CCN(Cc2ccc(-n3c(-c4cccnc4N)nc4ccc(-c5ccccc5)nc43)c(F)c2)C1` (centres unmarked) [Compound I-185], the negative-log IC50 (pIC50) is 5.70 to 6.30 in assay [1] and over 4.70 in assay [2].

For the compound `CNC(=O)[C@H]1CC[C@H](N(C)Cc2ccc(-n3c(-c4cccnc4N)nc4ccc(-c5ccccc5)nc43)cc2)CC1` [Compound I-186, trans-4-((4-(2-(2-aminopyridin-3-yl)-5-phenyl-3H-imidazo[4,5-b]pyridin-3-yl)benzyl)(methyl)amino)-N-methylcyclohexane-1-carboxamide], the negative logarithm of the IC50 (pIC50) in assay [1] was at most 5.70; in assay [2], over 4.70.

Consider `CN(Cc1ccc(-n2c(-c3cccnc3N)nc3ccc(-c4ccccc4)nc32)cc1)[C@H]1CC[C@H](C(N)=O)CC1` [Compound I-187, trans-4-((4-(2-(2-aminopyridin-3-yl)-5-phenyl-3H-imidazo[4,5-b]pyridin-3-yl)benzyl)(methyl)amino)cyclohexane-1-carboxamide], for which the negative logarithm of the IC50 (pIC50) is at most 5.70 in assay [1] and over 4.70 in assay [2].

For the compound `Nc1ncccc1-c1nc2ccc(-c3ccccc3)nc2n1-c1ccc(C2CCN(C[C@H]3CC[C@H](C(=O)O)CC3)CC2)cc1` [Compound I-190], the results for the pIC50 in assay [1] and in assay [2] were 5.70 to 6.30 and over 4.70, respectively.

Take `CC1(C)CC(CN2CCC(c3ccc(-n4c(-c5cccnc5N)nc5ccc(-c6ccccc6)nc54)cc3)CC2)CCC1C(=O)O` (centres unmarked) [Compound I-193]: the pIC50 in assay [1] was at most 5.70; in assay [2], over 4.70.

On to `CC1(C)CC(C(=O)O)CCC1CN1CCC(c2ccc(-n3c(-c4cccnc4N)nc4ccc(-c5ccccc5)nc43)cc2)CC1` (centres unmarked) [Compound I-194], for which the pIC50 is 5.70 to 6.30 in assay [1] and over 4.70 in assay [2].

As for `Nc1ncccc1-c1nc2ccc(-c3ccccc3)nc2n1-c1ccc(C2CCN(CC34CCC(C(=O)O)(CC3)CC4)CC2)cc1` [Compound I-195], the pIC50 in assay [1] was 5.70 to 6.30; in assay [2], over 4.70.

For `CC1(C)C[C@H](CN2CCC(c3ccc(-n4c(-c5cccnc5N)nc5ccc(-c6ccccc6)nc54)cc3)CC2)CC(C)(C)[C@H]1C(=O)O` [Compound I-196], the values for the negative logarithm of the IC50 (pIC50) in assay [1] and in assay [2] were at most 5.70 and over 4.70, respectively.

Take `CC1(C)C[C@H](CN2CCC(c3ccc(-n4c(-c5cccnc5N)nc5ccc(-c6ccccc6)nc54)cc3)CC2)CC(C)(C)[C@@H]1C(=O)O` [Compound I-197]: the pIC50 in assay [1] was at most 5.70; in assay [2] it was over 4.70.

With `Nc1ncccc1-c1nc2ccc(-c3ccccc3)nc2n1-c1ccc(C2CCN(C(=O)[C@H]3CC[C@H](C(=O)O)CC3)CC2)cc1` [Compound I-198], the negative-log IC50 (pIC50) in assay [1] was over 6.30; in assay [2], over 4.70.

As to `Nc1ncccc1-c1nc2ccc(-c3ccccc3)nc2n1-c1ccc(C2CCN(C(=O)[C@H]3CC[C@@H](C(=O)O)CC3)CC2)cc1` [Compound I-199], the negative-log IC50 (pIC50) in assay [1] was over 6.30; in assay [2], over 4.70.

On to `Cc1cc(C2CN(CC34CCC(C(=O)O)(CC3)CC4)C2)ccc1-n1c(-c2cccnc2N)nc2ccc(-c3ccccc3F)nc21` [Compound I-200], for which the pIC50 in assay [1] was 5.70 to 6.30; in assay [2], over 4.70.

With `Cc1cc(C2CN(CC3CC4CC(C(=O)O)CC4C3)C2)ccc1-n1c(-c2cccnc2N)nc2ccc(-c3ccccc3F)nc21` (centres unmarked) [Compound I-201], the pIC50 is over 6.30 in assay [1] and over 4.70 in assay [2].

Regarding `Nc1ncccc1-c1nc2ccc(-c3ccccc3F)nc2n1-c1ccc(C2CN(CC3CC4CC(C(=O)O)CC4C3)C2)cc1` (centres unmarked) [Compound I-202], the pIC50 in assay [1] is over 6.30; in assay [2] it was over 4.70.
